Test results: patent publication US8999891B2, “Method for controlling weeds in turf” (Dow AgroSciences LLC, priority 2013, dated 2015)

What was measured:
White Clover (TRFRE) = assay: Greenhouse post-emergence weed control, visual percent control; format: in vivo, Trifolium repens; conditions: 1 week after treatment, florasulam 0.001 g ai/ha, fluroxypyr 0.01 g ae/ha, 2,4-D 0.11 g ae/ha, alone or in the mixture, 0 = no control, 100 = complete kill
Text: Studies were applied post-emergence to broadleaf weeds reared from seed in 5″ square pots in 80% mineral/20% grit field soil. Stage of growth of species at application: EPHSU in the 3 to 5 leaf stage and TRFRE in the 3rd tri-foliate stage. Post-emergence trial design was a replicated block, one species per pot, 4 replicate pots per treatment. Post-emergence applications were made to the pot with a tracksprayer calibrated to 187 liters per hectare (L/ha), 40 pounds per square inch (PSI) at 1.9 miles per hour (mph) using an 8003E Teejet nozzle covering both soil and foliage. Trial was sub-irrigated daily. Active weed growth was maintained throughout the study period. Weed control of each species in the post-emergence study was assessed at 1, 2 and 3 weeks after treatment. Control was determined visually by comparing treated and untreated pots and scored on a 0 to 100 percent scale where 0 corresponds to no control and 100 corresponds to complete kill.
In the foregoing examples, the following equation was used to calculate the expected activity of mixtures containing three herbicidal active ingredients:
(§1) [formula] A=observed efficacy of a first active ingredient at the same concentration as used in the mixture. B=observed efficacy of a second active ingredient B at the same concentration as used in the mixture. C=observed efficacy of a third active ingredient C at the same concentration as used in the mixture. The following abbreviations are used in the tables: g ai/ha=grams active ingredient per hectare g ae/ha=grams acid equivalent per hectare DAA=days after application.

Dandelion (TAROF) = assay: Field study in turf, average % weed control; format: in vivo, Taraxacum officinale; conditions: 55 DAA, florasulam 5.2 g ai/ha, fluroxypyr 52.9 g ae/ha, 2,4-D 520 g ae/ha, alone or in the mixture
Text: (§2) Replicated applications were made to small plots (i.e. 5′×5′, 3′×10′) using a CO2 backpack sprayer. Florasulam SC (EF-1343), fluoroxypyr (Starane® Ultra) and 2,4-D (DMA® 4) are produced by Dow AgroSciences LLC, Indianapolis, Ind. Applications at each site were made at typical postemergent herbicide timing for that particular study location. Applications were generally timed for peak dandelion bloom in the northern cool-season turf market and throughout the year in the warm-season turf market where winter and summer annual and perennial weeds are targeted. Weed control evaluations were made as percent weed cover per plot and converted to percent control based on weed levels in the untreated control. Evaluations were made at various timing after application for eight to ten weeks.
as §1

White Cover (TRFRE) = assay: Field study in turf, average % weed control; format: in vivo, Trifolium repens; conditions: 62 DAA, florasulam 5.2 g ai/ha, fluroxypyr 52.9 g ae/ha, 2,4-D 520 g ae/ha, alone or in the mixture
Text: as §2, §1

Ground Ivy (GLEHE) = assay: Field study in turf, average % weed control; format: in vivo, Glechoma hederacea
Text: as §2, §1

[1] = 28 DAA, florasulam 2.3 g ai/ha, fluroxypyr 26.5 g ae/ha, 2,4-D 260.6 g ae/ha alone (260.0 in the mixture)
[2] = 56 DAA, florasulam 5.2 g ai/ha, fluroxypyr 52.9 g ae/ha, 2,4-D 520 g ae/ha, alone or in the mixture

`O=C(O)COc1ccc(Cl)cc1Cl` [2,4-D, (2,4-dichlorophenoxy)acetic acid] was tested, and the Observed percent control (White Clover (TRFRE)) was 1.7%, the “Observed Average % Weed Control” value (Dandelion (TAROF)) was 45.6% and the “Observed Average % Weed Control” value (White Cover (TRFRE)) was 20.0%. The “Observed Average % Weed Control” value (Ground Ivy (GLEHE); [1]) was 41.0% and the “Observed Average % Weed Control” value (Ground Ivy (GLEHE); [2]) was 41.7%.
With `Nc1c(Cl)c(F)nc(OCC(=O)O)c1Cl` [Fluroxypyr, [(4-amino-3,5-dichloro-6-fluoro-2-pyridinyl)oxy]acetic acid] the Observed percent control (White Clover (TRFRE)) was 35%, the “Observed Average % Weed Control” value (Dandelion (TAROF)) was 14.3% and the “Observed Average % Weed Control” value (White Cover (TRFRE)) was 31.3%. For the same compound, the “Observed Average % Weed Control” value (Ground Ivy (GLEHE); [1]) was 0.0% and the “Observed Average % Weed Control” value (Ground Ivy (GLEHE); [2]) was 0.0%.
For `COc1ncc(F)c2nc(S(=O)(=O)Nc3c(F)cccc3F)nn12` [Florasulam, 2′,6′,8-trifluoro-5-methoxy[1,2,4]triazolo[1,5-c]pyrimidine-2-sulfonanilide], the Observed percent control (White Clover (TRFRE)) was 10.3%, the “Observed Average % Weed Control” value (Dandelion (TAROF)) was 25.0% and the “Observed Average % Weed Control” value (White Cover (TRFRE)) was 23.8%. The “Observed Average % Weed Control” value (Ground Ivy (GLEHE); [1]) was 0.0% and the “Observed Average % Weed Control” value (Ground Ivy (GLEHE); [2]) was 0.0%.
